From ChEMBL document CHEMBL1139335, “Enaminones 8: CoMFA and CoMSIA studies on some anticonvulsant enaminones” (Bioorg Med Chem, 2009) come the findings set out here.

Test [1] deals with Mus musculus. As to the kind of experiment: Anticonvulsant activity in mouse assessed as inhibition of pentylenetetrazole-induced seizure at 100 to 300 mg/kg. It is filed as functional, organism-based.
For test [2], the system named is Mus musculus. As to the kind of experiment: Anticonvulsant activity in mouse assessed as inhibition of pentylenetetrazole-induced seizure at 100 mg/kg. The arrangement: dose 100 mg/kg. It is filed as functional, organism-based.

Molecules are shown by their SMILES. Active and inactive are the calls of the source. The calls are words filed in the database; no cut-off is given here.

For the compound `COc1ccc(N/C(C)=C/C(C)=O)cc1`, the outcome in test [1] was Active.
Still for that read-out and setting: the value for `CCOC(=O)C1C(=O)C=C(Nc2ccc(Cl)cn2)CC1C` (stereo not drawn) was “Active”.
Consider `CCOC(=O)C1C(=O)C=C(Nc2ccc(Cl)cc2)CC1C` (stereo not drawn), for which the result in test [2] was Active.
Same read-out and setting: then `COc1ccc(C(=O)NC2=CC(=O)CC(C)C2)cc1` (stereo not drawn), with “Active”.
Regarding `CCOC(=O)C1CCC(Nc2cccc(OC(F)(F)F)c2)=CC1=O` (stereo not drawn), the outcome in test [1] was Active.
Turning to `CCOC(=O)C1C(=O)C=C(Nc2ccc(Cl)c(Cl)c2)CC1C` (stereo not drawn), in test [1], the result was Active.
For `CCOC(=O)C1C(=O)C=C(Nc2ccc(Cl)cc2Cl)CC1C` (stereo not drawn), in test [1], the result was Active.
For the compound `COC(=O)C1C(=O)C=C(Nc2ccc(F)cc2)CC1C` (stereo not drawn), the outcome in test [1] was Active.
On the same count and under the same terms, the value for `COC(=O)C1C(=O)C=C(Nc2ccc(C(F)(F)F)cc2)CC1C` (stereo not drawn) was “Active”.
For the compound `COC(=O)C1C(=O)C=C(Nc2ccc(C(F)(F)F)cc2)CC1(C)C` (stereo not drawn), the outcome in test [2] was Active.
`CCOC(=O)C1C(=O)C=C(Nc2ccc(F)cc2)CC1C` (stereo not drawn): the outcome in test [1] was Active.
On the same count and under the same terms, the value for `COC(=O)C1C(=O)C=C(Nc2ccc(Cl)c(Cl)c2)CC1C` (stereo not drawn) was “Active”.
Same read-out and setting: then `CC(=O)/C=C(\C)Nc1ccc(Cl)cc1`, with “Active”; and `COC(=O)C1C(=O)C=C(Nc2ccc(Br)cc2)CC1C` (stereo not drawn), with “Active”.
The same measure, in the same setting: then `CC1CC(=O)C=C(Nc2ccc(OC(F)(F)F)cc2)C1` (stereo not drawn), with “Active”.
On to `NC1=CC(=O)CCC1`, for which, in test [2], the outcome was Active.
Turning to `COC(=O)C1C(=O)C=C(Nc2ccc(OC(F)(F)F)cc2)CC1C` (stereo not drawn), the result in test [1] was Active.
`CCOC(=O)C1C(=O)C=C(Nc2cc(C)ccc2OC)CC1C` (stereo not drawn): the result in test [1] was Active.
The same measure, in the same setting: the value for `CC1CC(=O)C=C(Nc2ccc(F)cc2)C1` (stereo not drawn) was “Active”.
On the same count and under the same terms, the value for `CCc1ccc(N/C(C)=C/C(C)=O)cc1` was “Active”.
`CCOC(=O)C1C(=O)C=C(Nc2ccc(C#N)cc2)CC1C` (stereo not drawn): the result in test [2] was Active.
For the compound `CC1CC(=O)C=C(Nc2cccc(Cl)c2)C1` (stereo not drawn), the outcome in test [1] was Active.
With `COC(=O)C1C(=O)C=C(Nc2ccc(Cl)cn2)CC1C` (stereo not drawn), the result in test [1] was Active.
Still for that read-out and setting: the value for `CC(=O)/C=C(\C)Nc1ccc(I)cc1` was “Active”; that for `CC1CC(=O)C=C(Nc2cccc(Br)c2)C1` (stereo not drawn) was “Active”; that for `CCOC(=O)C1C(=O)C2=C(CC1C)Nc1ccc(Cl)cc1S2` (stereo not drawn) was “Active”.
Regarding `N#Cc1ccc(C(=O)NC2=CC(=O)CCC2)cc1`, the outcome in test [2] was Active.
Take `CC1CC(=O)C=C(Nc2ccc(Cl)cc2)C1` (stereo not drawn): the result in test [1] was Active.
With `CC1(C)CC(=O)C=C(NC(=O)c2ccc(C#N)cc2)C1`, the outcome in test [2] was Active.
In the case of `CC(=O)/C=C(\C)Nc1ccc(Br)cc1`, in test [1], the outcome was Active.
On the same count and under the same terms, the value for `COC(=O)C1C(=O)C=C(Nc2ccccc2F)CC1C` (stereo not drawn) was “Active”; that for `COC(=O)C1C(=O)C=C(Nc2ccc(Cl)cc2)CC1(C)C` (stereo not drawn) was “Active”.
As for `CCOC(=O)C1C(=O)C=C(NC(=O)c2ccc(C)cc2)CC1C` (stereo not drawn), the result in test [2] was Active.
